One data set relates to Flu A H5N1 (High Path). Description: microbe, parasite or virus in culture. The class given is cell-based. Conditions: Influenza A virus, H5N1, MDCK, MDCK cells.
In the next data set the test system is Flu A H7N9 (High Path). The experiment in a line: microbe, parasite or virus in culture. The data set is classed as cell-based. Conditions: Influenza A virus, H7N9, MDCK, MDCK cells.
For data set [1] the following is noted: rat, in vivo, po, 50 mg/kg.
The subject of data set [2] is pestivirus and hepacivirus. Conditions: Stuyver et al., Antimicrob Agents Chemother, 2003; cited from earlier work.
The test system of the next data set is CHIKV. The experiment in a line: microbe, parasite or virus in culture. The data set is classed as cell-based, Chikungunya virus.
The next data set deals with DENV2. Description: microbe, parasite or virus in culture. The data set is classed as cell-based. Conditions: Dengue virus.

These results are taken from patent publication US11903959B2 (EMORY UNIVERSITY, priority 2017, dated 2024).

Each structure is given as a SMILES string. Like-named read-outs stand apart in the source and are kept apart here.

In general, EC50 refers to the midpoint of the concentration-response curve. High values mean weaker potency, low ones greater potency. `O=c1nc(NO)ccn1C1OC(CO)C(O)C1O` (stereo not drawn) [EIDD-1931, 1-(3,4-dihydroxy-5-(hydroxymethyl)tetrahydrofuran-2-yl)-4-(hydroxyamino)pyrimidin-2-one]: the EC50 in the data set on Flu A H5N1 (High Path) is over 88 µM; in the data set on Flu A H7N9 (High Path), over 48 µM; in the data set with CHIKV it was 1.8 µM; in the data set with CHIKV (Chikungunya virus, Vero) it was 1.28 µM; with DENV2 (DENV2, Vero 76), 14 µM; in the data set with DENV2 (DENV2, Vero 76, DENV2, Vero76 cells) it was 12.8 µM. In data set [1] (male, Sprague-Dawley (SD)), the “calculated bioavailability (% F)” value is 28%. The tissue distribution entry in data set [1] was “well distributed into all tissues tested”. Also, the antiviral activities entry in data set [2] was “antipestivirus and antihepacivirus activities”.
